Data reported in US5053006A, “Method for the permanent occlusion of arteries” (priority 1990, dated 1991).

Key:
[1] = in vivo; cited from earlier work
[2] = compared with rose bengal; cited from earlier work
middle cerebral artery = assay: Erythrosin B photothrombotic occlusion of middle cerebral artery; format: in vivo, rat
[3] = Absorption / excitation of the dye in tissue; format: physicochemical; conditions: endothelial tissue
Description: Examples of lasers that can be used to provide the light beam include the He-Ne laser, the argon ion laser and the argon-pumped dye laser. The 543.5 nm He-Ne laser, for example, can excite rose bengal with an efficiency of 58% of the maximum. (The wavelength at which excitation efficiency for rose bengal is maximal in tissue occurs at 562 nm.) Because the maximum theoretical power output is only 4 or 5 milliwatts, the 543.5 nm He-Ne laser is not used in clinical applications at this time. However, this laser is expected to be particularly useful in permanently occluding relatively low-flow arteries, smaller than about 200 μm, such as those in the choroid of the eye.
The argon ion laser is the most common clinical laser used at this time. Although the commonly used argon 514.5 nm line is only 36% efficient with respect to the maximum of rose bengal absorption, this laser is much more powerful (by at least a factor of 1000) and versatile than the He-Ne laser.
The absorption maximum of erythrosin B in endothelial tissue is at 536 nm, which is closer than that of rose bengal to the standard 514.5 nm wavelength of the argon ion laser.

Compound | half life [1] | quantum efficiency for singlet oxygen production [2] | photothrombotic efficiency in vivo (middle cerebral artery; 514.5 nm argon line, vs rose bengal) | photothrombotic occlusion of rat MCA (middle cerebral artery; i.v., argon ion laser, 680 μM blood concentration) | absorption maximum in endothelial tissue [3]
dihematoporphyrin ether [dihematoporphyrin ether derivative] | so long | – | – | – | –
O.O=C([O-])c1ccccc1-c1c2cc(I)c(=O)c(I)c-2oc2c(I)c([O-])c(I)cc12.[Na+].[Na+] [erythrosin B] | – | slightly less | comparable photothrombotic efficiency | photothrombotically occlude the rat middle cerebral artery in the same fashion as rose bengal | 536 nm
